Assays:
[1] = test system: angiogenesis-related genes in MSS31 cells; assay: Expression of angiogenesis-related genes by qRT-PCR; assay type: cell-based, mouse; details: atelocollagen complex, retn, fgf18, aqp1, map3k5, thy1, foxo6, hs6st1, cdkn1a, thbs1, spry4
Experimental: Therefore, an alternative action mechanism of the NBD peptide would be the modulation of the expression of these angiogenesis-related genes.
(§1) Caspase3/7 assays was performed with Apo-ONE Caspase-3/7 Assay
(§2) Reagent (Promega). No significant changes are observed.
F i g . […]
(§3) PC-3M-Luc cells were treated with atelocollagen alone or the NBD peptide/atelocollagen complex in vitro, and their growth rate was monitored.
(§4) The values represent cell growth rate relative to that of control cells that is […]
(§5) MSS31 cells were incubated with the peptide/atelocollagen complexes.
(§6) Isolation of total RNA and subsequent qRT-PCR analysis were carried out as described previously (30). The GAPDH gene was used as an internal control.
(§7) (a) Proangiogenic genes in NBD and CBD peptides-treated cells. (b)
(§8) Antiangiogenic genes in NBD and CBD peptides-treated cells.

[2] = test system: vinculin, integrin β1 and FAK in MSS31 cells; assay: Expression of vinculin, integrin β1 and FAK by western blot; assay type: cell-based, mouse; details: total cell lysates, vs control cells; 5 μg/well, 18 hours
Experimental: (§9) Figure 7 Stimulation of the formation of focal contacts by the NBD peptide. MSS31 cells incubated with atelocollagen alone or the peptide/atelocollagen complexes were subjected to immunofluorescent staining and western blot analysis. (a) Formation of focal adhesions. The cells were immunostained with antivinculin or anti-integrin β1 antibody followed by Alexa Fluor 488-conjugated secondary antibody. F-actin was visualized with Atto 647N-Phalloidin. Nuclei were stained with DAPI. Scale bars: 50 μm. (b) Western blot analysis of focal adhesion proteins. Total cellular proteins were subjected to immunoblot analysis. (c) Relative expression level of vinculin (VCN), integrin β1 (ITGβ1) and p-FAK. The band intensity of VCN and ITGβ1 and p-FAK relative to that of β-actin and total FAK, respectively, was measured using ImageJ software and normalized to control cells.
MSS31 cells cultured in six-well plates were incubated with 5 μg/well of the NBD or the CBD peptide/atelocollagen complex or atelocollagen alone for 18 hours and were lysed in M-PER Mammarian Protein Extraction Reagent (Thermo Fisher Scientific, Waltham, MA) containing complete, EDTA-free, EASYpack (Roche Applied Science, Penzberg, Upper Bavaria, Germany) and Halt Phosphatase Inhibitor Cocktail (Thermo Fisher Scientific). The lysates was used for immunoblot analysis. […]

PC-3M-Luc tumors = assay: Tumor angiogenesis (microvessel density, CD31 staining) in PC-3M-Luc xenografts; assay type: in vivo, human tumor in athymic nude mice; details: single intratumoral injection of 100 μg peptide in atelocollagen, tumors dissected three days after
Experimental: Figure 5 Inhibition of tumor angiogenesis and tumor growth of human prostate cancer cells by the NBD peptide. The peptide/atelocollagen was injected into the subcutaneous tumors on day 3 after inoculation of PC-3M-Luc cells. Atelocollagen alone was injected as controls. (a) Microvessel density. Anti-CD31-antibody staining was used to detect angiogenesis. Arrows show microvessels. The images were digitally processed for assessment of angiogenesis. (b) Inhibition of tumor growth by peptide delivery in vivo. Representative bioluminescent images of nude are shown. L, tumors treated with the CBD peptide; R, tumors treated with the NBD peptide. (c) The photon count of the bioluminescence is shown. Data represent the mean ± SD. The total number of animals is 7 in two independent experiments.
The peptide/atelocollagen complex was prepared by mixing equal volumes of atelocollagen (0.1% in PBS at pH 7.4) and peptide solution (1 mg/ml) with rotation for 30 minutes at 4 °C. The final concentration of atelocollagen was 0.5%. […] Tumor growth was assessed through peptide/atelocollagen complex administration to mice 3 days after the subcutaneous inoculation of PC-3M-Luc cells. Mice were monitored by bioluminescent imaging 14 days after the injection of the peptide/atelocollagen complex. […]

PC-3M-Luc cells = assay: PC-3M-Luc cell growth in vitro; assay type: cell-based, human
Experimental: as §1, §2
F i g . […]
as §3, §4, §5, §6, §7, §8

[3] = test system: vinculin and integrin β1 focal adhesions in MSS31 cells; assay: Focal adhesion and F-actin immunofluorescence; assay type: cell-based, mouse; details: 5 μg/well, 18 hours
Experimental: as §9
MSS31 cells cultured in six-well plates were incubated with 5 μg/well of the NBD or the CBD peptide/atelocollagen complex or atelocollagen alone for 18 hours in Culture Slides (4 wells, BD Falcon) and were washed three times with DPBS and fixed for 10 minutes at 4 °C with 4% formaldehyde in DPBS. After permeabilizing with 0.5% Triton X-100 in DPBS for 4 minutes, the cells were treated with 3% bovine serum albumin in DPBS containing 0.1% glycine for 1 hour to block nonspecific binding sites. After washing with DPBS, the cells were incubated for 1 hour with primary antibodies, rinsed, and then stained with secondary antibodies. The primary antibodies used were polyclonal anti-S100A4, monoclonal anti-NMIIA antibody, monoclonal antivinculin antibody and polyclonal anti-integrin β1 antibody. The secondary antibody was Alexa Fluor 488-conjugated goat antirabbit IgG (Invitrogen) or Alexa Fluor 594-conjugated goat antimouse IgG (Invitrogen). F-Actin was visualized with Atto 647N-Phalloidin (Sigma-Aldrich). Nuclei were stained with 1 μg/ml DAPI. The slides were mounted with VECTASHIELD Mounting Medium (Vector Laboratories). The cells were observed under a confocal laser scanning microscope (Fluoview FV1000, Olympus, Japan).

## NBD: N-terminal 39 amino acid sequence of SBD, from Arg170 to Ileu208; corresponding to MetAP2 (170–208) (REAAEAHRQVRKYVMSWIKPGMTMIEICEKLEDCSRKLI)
[1]
  expression of angiogenesis-related genes: could not detect any alteration of the expression of these genes
[2]
  expression of vinculin, integrin β1 and FAK: no significant difference in the expressions of vinculin, integrin β1 and FAK
PC-3M-Luc tumors
  tumor angiogenesis: severely impaired
PC-3M-Luc cells; discussion wording, p53-null cells
  proliferation of PC-3 cells: did not influence the proliferation of PC-3 cells
PC-3M-Luc cells; in vitro, NBD peptide/atelocollagen complex, vs untreated, Supplementary Figure S6
  growth rate of PC-3M-Luc cells: comparable growth rate to that of untreated cells
[3]; atelocollagen complex, vinculin and integrin β1 staining
  number of focal adhesions per cell: greater number of vinculin- and integrin β1-containing focal adhesions per cell than the untreated and the CBD peptide-treated cells
[3]; immunofluorescence
  distribution of focal adhesions: focal adhesions were distributed uniformly
[3]; phalloidin staining
  formation of actin filaments: Formation of actin filaments was also prominent

Reference: PMC4445002, “Efficient inhibition of tumor angiogenesis and growth by a synthetic peptide blocking S100A4-methionine aminopeptidase 2 interaction” (Molecular Therapy. Methods & Clinical Development, 2015)
